Experimental data from patent publication US6469013B2, “Therapeutic compounds” (Parker Hughes Institute, priority 1998, dated 2002).

Columns and labels:
recombinant murine JAK3 = biological target: T1, recombinant murine JAK3 (Mus musculus, UniProt Q62137); assay: Recombinant JAK3 immune complex kinase assay (baculovirus, Sf21); assay type: biochemical
T1 sequence (Q62137 1-1100): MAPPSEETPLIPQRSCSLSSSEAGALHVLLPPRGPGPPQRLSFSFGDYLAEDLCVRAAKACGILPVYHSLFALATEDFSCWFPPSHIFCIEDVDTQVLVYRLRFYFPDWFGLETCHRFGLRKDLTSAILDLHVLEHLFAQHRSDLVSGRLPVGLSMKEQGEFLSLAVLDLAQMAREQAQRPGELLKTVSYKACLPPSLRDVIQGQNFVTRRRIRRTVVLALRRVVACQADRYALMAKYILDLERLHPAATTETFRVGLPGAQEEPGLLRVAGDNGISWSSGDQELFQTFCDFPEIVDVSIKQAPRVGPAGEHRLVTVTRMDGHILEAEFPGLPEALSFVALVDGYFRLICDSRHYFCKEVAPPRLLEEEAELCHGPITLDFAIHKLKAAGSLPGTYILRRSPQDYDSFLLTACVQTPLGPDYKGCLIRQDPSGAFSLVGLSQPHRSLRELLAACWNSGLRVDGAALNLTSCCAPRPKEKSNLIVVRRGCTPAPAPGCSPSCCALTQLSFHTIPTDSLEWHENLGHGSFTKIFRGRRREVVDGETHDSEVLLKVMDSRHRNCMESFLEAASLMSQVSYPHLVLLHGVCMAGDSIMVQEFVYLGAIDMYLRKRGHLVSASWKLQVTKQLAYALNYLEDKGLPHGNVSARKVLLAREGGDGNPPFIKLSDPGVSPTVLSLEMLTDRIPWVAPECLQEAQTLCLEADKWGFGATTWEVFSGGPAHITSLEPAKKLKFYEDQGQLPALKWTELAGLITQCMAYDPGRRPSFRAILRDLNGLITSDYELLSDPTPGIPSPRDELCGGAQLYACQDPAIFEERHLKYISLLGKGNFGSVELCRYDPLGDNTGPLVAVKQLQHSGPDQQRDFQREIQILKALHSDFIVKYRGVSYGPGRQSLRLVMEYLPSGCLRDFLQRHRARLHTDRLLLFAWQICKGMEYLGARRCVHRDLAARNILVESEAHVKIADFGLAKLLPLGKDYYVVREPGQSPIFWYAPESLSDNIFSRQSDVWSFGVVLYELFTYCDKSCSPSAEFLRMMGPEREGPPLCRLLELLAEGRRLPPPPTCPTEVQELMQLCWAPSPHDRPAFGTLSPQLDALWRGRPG
Protocol: Sf21 (IPLB-SF21-AE) cells (Vassilev, A., et al., J. Biol. Chem. 274: 1646-1656, 1999) derived from the ovarian tissue of the fall armyworm Spodotera frugiperda, were obtained from Invitrogen (Carlsbad, Calif.) and maintained at 26-28° C. in Grace's insect cell medium supplemented with 10% FBS and 1.0% antibiotic/antimycotic (GIBCO-BRL). Stock cells were maintained in suspension at 0.2-1.6×10^6/ml in 600 ml total culture volume in 1 L Bellco spinner flasks at 60-90 rpm. Cell viability was maintained at 95-100% as determined by trypan blue dye exclusion. Sf21 cells were infected with a baculovirus expression vector for BTK, SYK, JAK1, JAK2, or JAK3. Cells were harvested, lysed (10 MM Tris pH7.6, 100 mM NaCl, 1% Nonidet P40, 10% glycerol, 50 mM NaF, 100 μM Na3VO4, 50 μg/ml phenylmethylsulfonyl fluoride, 10 μg/ml aprotonin, 10 μg/ml leupeptin), the kinases were immunoprecipitated from the lysates, and their enzymatic activity assayed, as reported (Vassilev, A., et al., J. Biol. Chem. 274: 1646-1656, 1999; Uckun, F. M., et al., Science. 22: 1096-1100, 1996; Goodman, P. A., et al., J. Biol. Chem. 273: 17742-48, 1998; Mahajan, S., et al., Mol. Cell. Biol. 15: 5304-11, 1995; and Uckun, F. M., et al., Science. 267: 886-91, 1995). The immunoprecipitates were subjected to Western blot analysis as previously described (Vassilev, A., et al., J. Biol. Chem. 274: 1646-1656, 1999; and Uckun, F. M., et al., Science. 22: 1096-1100, 1996).
In JAK3 immune complex kinase assays (17, 22), KL-2 EBV-transformed human lymphoblastoid B cells (native JAK3 kinase assays) or insect ovary cells (recombinant JAK3 kinase assays) were lysed with NP-40 lysis buffer (50 mM Tris, pH 8, 150 mM NaCl, 5 mM EDTA, 1% NP-40, 100 μM sodium orthovanadate, 100 μM sodium molybdate, 8 μg/ml aprotinin, 5 μg/ml leupeptin, and 500 μM PMSF) and centrifuged 10 min at 13000× g to remove insoluble material. Samples were immunoprecipitated with antisera prepared against JAK3. The antisera were diluted and immune complexes collected by incubation with 15 μl protein A Sepharose. After 4 washes with NP-40 lysis buffer, the protein A Sepharose beads were washed once in kinase buffer (20 mM MOPS, pH7, 10 mM MgCl2) and resuspended in the same buffer. Reactions were initiated by the addition of 25 μCi [γ^32P] ATP (5000 Ci/mMole) and unlabeled ATP to a final concentration of 5 μM. Reactions were terminated by boiling for 4 min in SDS sample buffer. Samples were run on 9.5% SDS polyacrylamide gels and labeled proteins were detected by autoradiography. […] For each drug concentration, a kinase activity index (KA) was determined by comparing the kinase activity in phosphorimager units (PIU) to that of the baseline sample. […]

NOD-scid/scid females = assay: Adoptive transfer of diabetes; assay type: in vivo, mouse; conditions: 50 mg/kg daily, up to week 5 post transfer
Protocol: Single-cell suspensions of splenic leucocytes pooled from 8-10 diabetic NOD females were prepared by passage through Nitex 110 mesh, and red blood cells were lysed in 10× Gey's solution. Aliquots of 1×10^7 splenocytes were adoptively transferred intravenously into 4-week-old NOD/Lt-scid/scid females (The Jackson Laboratory, Bar Harbor, Me.). […] Mice were monitored for diabetes development by testing urinary glucose every week from second week after the transfer by Chemstrip uGK strips (Boehringer Mannheim, Indianapolis, Ind.). Mice with glycosuria over 500 mg/dl (+++) on consecutive weekly tests were considered diabetic, with the first detection of chronic glycosuria taken as the date of IDDM onset.

SMILES: COc1cc2ncnc(Nc3ccc(O)cc3)c2cc1OC [WHI-P131, 4-(4′-hydroxyl-phenyl)-amino-6,7-dimethoxyquinazoline]
- IC50 (recombinant murine JAK3; recombinant murine JAK3): 78 µM
- IC50 (recombinant murine JAK3; recombinant murine JAK3, converted from μg/ml): ~78 µM
- diabetic mice post adoptive transfer (NOD-scid/scid females): 8%
